Series [1] is described as follows: Plasma Stability Assay of Example A3, human plasma. The conditions noted are these: % of prodrug compound remaining, 37° C.
A short description of series [2]: Plasma Stability Assay of Example A3, mouse plasma. The conditions noted are these: % of prodrug compound remaining, 37° C.
The conditions of series [3]: 5 µM.
Protocol: (§1) 50 uL aliquots of positive controls and test compounds spiked into rat or human plasma (n=2) were added to a pre-warmed plate (37° C.) and shaken at 50 rpm. At each respective time point, the reaction was stopped by adding 500 μL of acetonitrile containing internal standards (100 nM aprozolam, 200 nM caffeine, 100 nM tolbutamide). All samples were vortexed for 10 minutes, followed by centrifugation at 3,220 g for 30 minutes to precipitate proteins. 100 μL of the supernatant is transferred to a new plate. The supernatant will be diluted with ultrapure water according to the LC-MS signal response and peak shape.
The conditions of series [4]: 5 µM. This is another data set of the same source.
Protocol: as §1

Like-named read-outs stand apart in the source and are kept apart here.

From patent US12269800B2, “Delivery of therapeutic alkaloid compounds” (priority 2021, dated 2025) come the findings set out here.

`COc1ccc([C@@]23CCC(OC(=O)C(c4ccccc4)c4ccccc4)=C[C@@H]2N(C)CC3)cc1OC` [Compound 306, [(3aS,7aS)-3a-(3,4-dimethoxyphenyl)-1-methyl-3,4,5,7a-tetrahydro-2H-indol-6-yl] 2,2-diphenylacetate]: the “Human Plasma Prodrug (%)” value in series [1] (0.0 min) came out at 100.0%. For the same molecule, the “Mouse Plasma Prodrug (%)” value in series [2] (0.0 min) was determined as 100.0%; in series [2] (15 min), 6.2%; in series [2] (60 min), 1.6%; in series [2] (120 min), 0.4%; in series [2] (240 min), 0.1%.

Consider `COc1ccc([C@@]23CCC(OC(=O)c4ccc(C(C)C)cc4)=C[C@@H]2N(C)CC3)cc1OC` [Compound 371, (3aS,7aS)-3a-(3,4-dimethoxyphenyl)-1-methyl-2,3,3a,4,5,7a-hexahydro-1H-indol-6-yl 4-isopropylbenzoate], for which the “Human Plasma Prodrug (%)” value in series [1] (0.0 min) came to 100%; in series [1] (15 min), 99%; in series [1] (30 min), 92%; in series [1] (60 min), 87%; in series [1] (120 min), 78%; in series [1] (240 min) it was 27%. Moreover, the “Human Plasma Prodrug (%)” value in series [3] (0 min) is given as 100.0%; in series [3] (10 min) it was over 99%; in series [3] (30 min), 94.4%; in series [3] (60 min), 90.7%; in series [3] (120 min) it was 91.3%; in series [3] (240 min) it was 78.0%. Besides, the “Mouse Plasma Prodrug (%)” value in series [2] (0.0 min) was determined as 100%; in series [2] (15 min), 10%; in series [2] (30 min), 0%; in series [2] (60 min) it was 0%; in series [2] (120 min) it was 0%; in series [2] (240 min), 0%. Besides, the “Rat Plasma Prodrug (%)” value in series [4] (0 min) stood at 100.0%; in series [4] (10 min), 5.0%; in series [4] (30 min), 0.2%; in series [4] (60 min) it was 0.1%; in series [4] (120 min), 0.0%; in series [4] (240 min), 0.0%.

Take `C=C(C)C(=O)OC1=C[C@@H]2N(C)CC[C@]2(c2ccc(OC)c(OC)c2)CC1` [Compound 315, [(3aS,7aS)-3a-(3,4-dimethoxyphenyl)-1-methyl-3,4,5,7a-tetrahydro-2H-indol-6-yl]-2-methylprop-2-enoate]: the “Human Plasma Prodrug (%)” value in series [1] (0.0 min) came out at 100.0%; in series [1] (30 min), 2.3%; in series [1] (60 min) it was 0.5%; in series [1] (120 min), 0.2%; in series [1] (240 min), 0.0%. For the same molecule, the “Mouse Plasma Prodrug (%)” value in series [2] (0.0 min) is listed as 100.0%; in series [2] (15 min), 5.3%; in series [2] (30 min), 2.4%; in series [2] (60 min), 1.3%; in series [2] (120 min), 2.0%; in series [2] (240 min), 1.9%.

As to `COc1ccc([C@@]23CCC(OC(=O)c4ccc(C#N)cc4)=C[C@@H]2N(C)CC3)cc1OC` [Compound 354, (3aS,7aS)-3a-(3,4-dimethoxyphenyl)-1-methyl-2,3,3a,4,5,7a-hexahydro-1H-indol-6-yl 4-cyanobenzoate], the “Human Plasma Prodrug (%)” value in series [1] (0.0 min) came out at 100%; in series [1] (15 min), 93%; in series [1] (30 min) it was 72%; in series [1] (60 min), 42%; in series [1] (120 min), 13%; in series [1] (240 min) it was 1%. For the same molecule, the “Mouse Plasma Prodrug (%)” value in series [2] (0.0 min) was determined as 100%; in series [2] (15 min), 5%; in series [2] (30 min), 7%; in series [2] (60 min), 5%; in series [2] (120 min), 4%; in series [2] (240 min) it was 0%.

Consider `COc1ccc([C@@]23CCC(OC(=O)c4ccc(F)cc4)=C[C@@H]2N(C)CC3)cc1OC` [Compound 353, (3aS,7aS)-3a-(3,4-dimethoxyphenyl)-1-methyl-2,3,3a,4,5,7a-hexahydro-1H-indol-6-yl 4-fluorobenzoate], for which the “Human Plasma Prodrug (%)” value in series [1] (0.0 min) was found to be 100%. The “Mouse Plasma Prodrug (%)” value worked out at 100% in series [2] (0.0 min); 0% in series [2] (15 min); 0% in series [2] (30 min); 0% in series [2] (60 min); 0% in series [2] (120 min); 0% in series [2] (240 min).

In the case of `COc1ccc([C@@]23CCC(OC(=O)c4ccc(N(C)C)cc4)=C[C@@H]2N(C)CC3)cc1OC` [Compound 355, [(3aS,7aS)-3a-(3,4-dimethoxyphenyl)-1-methyl-3,4,5,7a-tetrahydro-2H-indol-6-yl] 4-(dimethylamino)benzoate], the “Human Plasma Prodrug (%)” value is given as 100.0% in series [1] (0.0 min); over 99% in series [1] (15 min); over 99% in series [1] (30 min); over 99% in series [1] (60 min); over 99% in series [1] (120 min). The “Mouse Plasma Prodrug (%)” value in series [2] (0.0 min) is on record as 100.0%; in series [2] (60 min) it was 9.9%; in series [2] (120 min), 0.5%; in series [2] (240 min), 0.0%.

In the case of `COc1ccc([C@@]23CCC(OC(=O)C4CC4)=C[C@@H]2N(C)CC3)cc1OC` [Compound 312, [(3aS,7aS)-3a-(3,4-dimethoxyphenyl)-1-methyl-3,4,5,7a-tetrahydro-2H-indol-6-yl] cyclopropanecarboxylate], the results for the “Human Plasma Prodrug (%)” value in series [1] (0.0 min), in series [1] (15 min) and in series [1] (30 min) were 100.0%, 8.1% and 6.2%, respectively. Besides, the “Mouse Plasma Prodrug (%)” value in series [2] (0.0 min) is on record as 100.0%; in series [2] (15 min) it was 3.5%; in series [2] (30 min), 1.6%; in series [2] (60 min), 2.2%; in series [2] (120 min), 2.8%; in series [2] (240 min) it was 0.8%.

With `COc1ccc([C@@]23CCC(OC(=O)c4cccc(C(C)(C)C)c4)=C[C@@H]2N(C)CC3)cc1OC` [Compound 375, (3aS,7aS)-3a-(3,4-dimethoxyphenyl)-1-methyl-2,3,3a,4,5,7a-hexahydro-1H-indol-6-yl 3-(tert-butyl)benzoate], the “Human Plasma Prodrug (%)” value in series [1] (0.0 min) is reported as 100%; in series [1] (15 min), over 99%; in series [1] (30 min), over 99%; in series [1] (60 min), 97%; in series [1] (120 min), 57%; in series [1] (240 min), 26%. The “Mouse Plasma Prodrug (%)” value in series [2] (0.0 min) is on record as 100%; in series [2] (15 min), 11%; in series [2] (30 min) it was 2%; in series [2] (60 min), 0%; in series [2] (120 min), 0%; in series [2] (240 min), 0%.

In the case of `COc1ccc([C@@]23CCC(OC(=O)c4cccc(N(C)C)c4)=C[C@@H]2N(C)CC3)cc1OC` [Compound 307, [(3aS,7aS)-3a-(3,4-dimethoxyphenyl)-1-methyl-3,4,5,7a-tetrahydro-2H-indol-6-yl] 3-(dimethylamino)benzoate], the “Human Plasma Prodrug (%)” value was 100.0% in series [1] (0.0 min) and 83.0% in series [1] (60 min). Besides, the “Mouse Plasma Prodrug (%)” value in series [2] (0.0 min) came to 100.0%; in series [2] (30 min), 3.8%; in series [2] (60 min) it was 0.1%; in series [2] (120 min), 0.0%; in series [2] (240 min), 0.0%.

Regarding `C/C=C(\C)C(=O)OC1=C[C@@H]2N(C)CC[C@]2(c2ccc(OC)c(OC)c2)CC1` [Compound 313, [(3aS,7aS)-3a-(3,4-dimethoxyphenyl)-1-methyl-3,4,5,7a-tetrahydro-2H-indol-6-yl](E)-2-methylbut-2-enoate], the “Human Plasma Prodrug (%)” value in series [1] (0.0 min) worked out at 100.0%; in series [1] (120 min), 2.4%; in series [1] (240 min), 0.4%. The “Mouse Plasma Prodrug (%)” value in series [2] (0.0 min) is reported as 100.0%; in series [2] (15 min) it was 2.1%; in series [2] (30 min) it was 0.7%; in series [2] (60 min) it was 0.1%; in series [2] (120 min), 0.0%; in series [2] (240 min) it was 0.0%.

`COc1ccc([C@@]23CCC(OC(=O)C(C)(C)C)=C[C@@H]2N(C)CC3)cc1OC` [Compound 309, [(3aS,7aS)-3a-(3,4-dimethoxyphenyl)-1-methyl-3,4,5,7a-tetrahydro-2H-indol-6-yl] 2,2-dimethylpropanoate]: the results for the “Human Plasma Prodrug (%)” value in series [1] (0.0 min), in series [1] (120 min) and in series [1] (240 min) were 100.0%, 3.6% and 2.0%, respectively. For the same molecule, the “Mouse Plasma Prodrug (%)” value was 100.0% in series [2] (0.0 min), 8.2% in series [2] (60 min), 0.0% in series [2] (120 min) and 0.0% in series [2] (240 min).

As for `COc1ccc([C@@]23CCC(OC(=O)CCN)=C[C@@H]2N(C)CC3)cc1OC` [Compound 397, (3aS,7aS)-3a-(3,4-dimethoxyphenyl)-1-methyl-2,3,3a,4,5,7a-hexahydro-1H-indol-6-yl 3-aminopropanoate], the “Human Plasma Prodrug (%)” value in series [3] (0 min) came to 100.0%; in series [3] (10 min), 2.2%; in series [3] (30 min) it was 0.5%; in series [3] (60 min), 0.1%; in series [3] (120 min) it was 0.2%; in series [3] (240 min) it was 0.0%. The “Rat Plasma Prodrug (%)” value in series [4] (0 min) was 100.0%; in series [4] (10 min), 10.5%; in series [4] (30 min), 0.5%; in series [4] (60 min), 0.1%; in series [4] (120 min), 0.1%; in series [4] (240 min), 0.1%.
